Reference: US7678583B2, “Method of lysis of erythrocytes” (Immunotech, S.A., priority 2000, dated 2010)

Experiments:
[1] = Experiment 2: conversion of ammonium carbamate into ammonium carbonate, precipitation in 85% of acetone; type: biochemical
erythrocytes = assay: Experiment 3: speed of lysis with carbonic anhydrases from different sources in lysis reagent according to Example 1; type: cell-based; settings: Example 1 reagent, carbonic anhydrase replaced by preparation at 5000 W-A U/l; OD at 700 nm; time to minimum level
Protocol: In a lysis reagent according to Example 1, the component carbonic anhydrase at 50,000 W-A U/I was replaced by preparations of carbonic anhydrase as indicated in the table, each at 5000 W-A U/I. The lysis process was tracked spectrophotometrically (measurement of the OD at 700 nm). The duration of the lysis is determined by the time necessary to achieve a minimum level.

| Compound | Speed of lysis at 5000 W-A U/l (erythrocytes) | other results |
| --- | --- | --- |
| N.NC(=O)O [100 mM NH2CO2NH4, ammonium carbamate, reference compound] | – | Duration before complete precipitation in 85% of acetone ([1]; carbonate precipitates and not the carbamate): 240 min |
| CAI, C-4396: carbonic anhydrase I preparation, Sigma, human | 5.06 min | – |
| CAI, C-5290: carbonic anhydrase I preparation, Sigma, human | 3.24 min | – |
| CAII, C-2522: carbonic anhydrase II preparation, Sigma, bovine | 8.51 min | – |
| carbonic anhydrase | – | catalysis of the conversion carbonate / carbamate+H2O (in words) [1]: also catalyses the conversion carbonate |
